Test results reported in patent US20230109833A1, “METABOLICALLY STABLE N-ACYLAMINOOXADIAZOLES USEFUL AS ANTIBACTERIAL AGENTS” (MICROBIOTIX, INC., priority 2017, published 2023).
In brackets after ≈: the same amount, converted by molar mass.

Tests used:
Phorbol Ester = type: binding; conditions: mouse; 10 μM compound; Hit Profile Panel
Adrenergic α1A = target: T1, Adrenergic α1A (Rattus norvegicus, UniProt P43140); type: binding; conditions: 10 μM compound, Hit Profile Panel
T1 sequence (P43140 1-466): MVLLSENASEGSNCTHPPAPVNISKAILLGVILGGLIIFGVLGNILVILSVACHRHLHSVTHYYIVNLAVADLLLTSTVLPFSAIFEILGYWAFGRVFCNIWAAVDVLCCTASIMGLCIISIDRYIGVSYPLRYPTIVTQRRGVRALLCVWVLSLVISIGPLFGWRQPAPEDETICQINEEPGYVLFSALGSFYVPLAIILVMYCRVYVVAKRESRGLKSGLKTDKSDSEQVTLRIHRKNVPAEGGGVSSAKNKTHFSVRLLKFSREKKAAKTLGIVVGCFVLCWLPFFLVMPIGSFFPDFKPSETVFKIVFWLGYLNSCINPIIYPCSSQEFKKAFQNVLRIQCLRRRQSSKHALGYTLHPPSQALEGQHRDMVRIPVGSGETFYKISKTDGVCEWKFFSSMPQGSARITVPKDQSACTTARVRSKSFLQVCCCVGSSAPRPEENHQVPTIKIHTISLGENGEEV

CYP450, 2C9 = CYP450, 2C9 (Homo sapiens, UniProt P11712); conditions: 10 µM
Potassium Channel hERG = Potassium Channel hERG (Homo sapiens, UniProt Q12809); conditions: 10 µM
Sigma σ1 = Sigma σ1 (Homo sapiens, UniProt Q99720); type: binding; conditions: 10 μM compound, Hit Profile Panel
Sigma σ1, sequence (Q99720 whole entry): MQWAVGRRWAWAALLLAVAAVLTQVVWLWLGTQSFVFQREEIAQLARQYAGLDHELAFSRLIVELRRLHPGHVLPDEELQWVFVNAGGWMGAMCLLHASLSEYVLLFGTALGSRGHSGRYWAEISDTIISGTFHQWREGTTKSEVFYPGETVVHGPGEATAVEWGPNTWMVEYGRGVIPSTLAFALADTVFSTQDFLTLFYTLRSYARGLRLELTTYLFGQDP

Adrenergic α1B = target: T2, Adrenergic α1B (Rattus norvegicus, UniProt P15823); type: binding; conditions: 10 μM compound, Hit Profile Panel
T2 sequence (P15823 1-515): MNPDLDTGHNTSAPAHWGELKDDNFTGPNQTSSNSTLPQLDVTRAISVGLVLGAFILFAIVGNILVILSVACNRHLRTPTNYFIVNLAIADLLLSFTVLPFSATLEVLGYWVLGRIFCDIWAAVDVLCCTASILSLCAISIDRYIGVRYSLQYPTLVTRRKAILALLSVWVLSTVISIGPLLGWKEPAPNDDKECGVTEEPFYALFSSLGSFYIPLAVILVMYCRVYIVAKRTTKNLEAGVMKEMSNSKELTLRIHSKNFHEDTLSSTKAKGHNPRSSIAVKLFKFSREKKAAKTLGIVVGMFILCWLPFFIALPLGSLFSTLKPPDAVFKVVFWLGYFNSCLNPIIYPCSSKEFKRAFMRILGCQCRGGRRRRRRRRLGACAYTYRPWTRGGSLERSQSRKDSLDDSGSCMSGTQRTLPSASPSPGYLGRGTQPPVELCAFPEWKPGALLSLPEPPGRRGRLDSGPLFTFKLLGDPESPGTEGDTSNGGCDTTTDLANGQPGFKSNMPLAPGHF

Potassium Channel (KATP) = Potassium Channel (KATP) (Cricetus cricetus, UniProt Q09427); type: binding; conditions: hamster; 10 μM compound; Hit Profile Panel
Potassium Channel (KATP), sequence (Q09427 whole entry): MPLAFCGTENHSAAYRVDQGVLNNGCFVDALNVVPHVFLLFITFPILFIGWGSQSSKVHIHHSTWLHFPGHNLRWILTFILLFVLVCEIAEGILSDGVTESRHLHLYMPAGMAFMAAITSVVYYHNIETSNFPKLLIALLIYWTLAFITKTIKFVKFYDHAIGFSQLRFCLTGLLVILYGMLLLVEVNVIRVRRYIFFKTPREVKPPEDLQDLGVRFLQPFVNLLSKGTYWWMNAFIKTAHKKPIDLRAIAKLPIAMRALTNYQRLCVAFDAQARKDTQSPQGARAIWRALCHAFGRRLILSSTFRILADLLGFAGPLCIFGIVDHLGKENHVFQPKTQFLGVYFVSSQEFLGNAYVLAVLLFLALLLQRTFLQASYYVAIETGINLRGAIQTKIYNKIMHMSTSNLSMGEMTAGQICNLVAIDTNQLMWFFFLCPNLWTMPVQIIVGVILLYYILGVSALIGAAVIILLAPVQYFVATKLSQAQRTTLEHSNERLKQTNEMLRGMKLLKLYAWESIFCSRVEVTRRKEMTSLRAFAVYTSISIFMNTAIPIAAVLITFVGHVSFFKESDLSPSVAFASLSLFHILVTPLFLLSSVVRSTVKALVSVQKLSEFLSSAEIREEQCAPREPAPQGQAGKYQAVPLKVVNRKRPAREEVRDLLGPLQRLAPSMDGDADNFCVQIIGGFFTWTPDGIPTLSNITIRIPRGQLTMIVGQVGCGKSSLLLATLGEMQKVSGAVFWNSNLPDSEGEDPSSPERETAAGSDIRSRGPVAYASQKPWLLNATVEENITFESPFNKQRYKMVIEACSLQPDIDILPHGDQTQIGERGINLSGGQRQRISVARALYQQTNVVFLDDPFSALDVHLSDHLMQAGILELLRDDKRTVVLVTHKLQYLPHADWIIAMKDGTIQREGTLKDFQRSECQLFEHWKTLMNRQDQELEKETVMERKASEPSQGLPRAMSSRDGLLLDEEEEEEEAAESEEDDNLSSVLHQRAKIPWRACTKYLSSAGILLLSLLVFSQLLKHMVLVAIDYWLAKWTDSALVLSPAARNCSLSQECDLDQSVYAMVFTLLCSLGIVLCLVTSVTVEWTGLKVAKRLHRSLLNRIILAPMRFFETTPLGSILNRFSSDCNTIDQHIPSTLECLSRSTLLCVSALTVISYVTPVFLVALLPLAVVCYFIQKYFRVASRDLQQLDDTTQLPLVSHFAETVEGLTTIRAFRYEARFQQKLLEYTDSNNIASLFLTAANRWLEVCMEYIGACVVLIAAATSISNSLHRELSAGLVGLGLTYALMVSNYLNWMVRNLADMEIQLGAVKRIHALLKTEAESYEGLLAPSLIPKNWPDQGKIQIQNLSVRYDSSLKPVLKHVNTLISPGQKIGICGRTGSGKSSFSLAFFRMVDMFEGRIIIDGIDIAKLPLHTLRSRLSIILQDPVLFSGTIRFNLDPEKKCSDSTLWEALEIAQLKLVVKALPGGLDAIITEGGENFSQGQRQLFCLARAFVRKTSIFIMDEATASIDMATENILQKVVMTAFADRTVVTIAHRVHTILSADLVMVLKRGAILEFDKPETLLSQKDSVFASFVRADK

CYP450, 1A2 = CYP450, 1A2 (Homo sapiens, UniProt P05177); conditions: 10 µM
CYP450, 1A2, sequence (P05177 whole entry): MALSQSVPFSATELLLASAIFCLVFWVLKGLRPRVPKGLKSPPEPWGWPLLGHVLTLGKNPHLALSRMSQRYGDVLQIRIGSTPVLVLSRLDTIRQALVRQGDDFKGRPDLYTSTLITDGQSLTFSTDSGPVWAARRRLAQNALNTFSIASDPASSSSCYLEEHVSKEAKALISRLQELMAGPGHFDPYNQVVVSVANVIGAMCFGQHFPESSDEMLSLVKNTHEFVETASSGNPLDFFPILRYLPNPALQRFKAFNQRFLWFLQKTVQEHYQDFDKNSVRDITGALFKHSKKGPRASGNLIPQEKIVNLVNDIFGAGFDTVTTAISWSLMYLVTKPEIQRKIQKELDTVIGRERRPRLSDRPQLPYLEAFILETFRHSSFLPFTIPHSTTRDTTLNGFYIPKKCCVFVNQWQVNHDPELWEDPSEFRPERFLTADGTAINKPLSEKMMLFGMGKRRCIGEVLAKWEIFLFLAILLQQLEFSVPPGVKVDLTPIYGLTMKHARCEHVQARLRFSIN

[1] = Single dose PK (IV and PO); type: in vivo; conditions: mice, 10 mg/kg PO
Imidazoline I2, Central = type: binding; conditions: rat; 10 μM compound; Hit Profile Panel
CYP3A4 = target: T3, CYP3A4 (Homo sapiens, UniProt P08684); experiment: CYP450 inhibition; type: biochemical; conditions: 10 μM compound, Hit Profile Panel; for inhibition at 10 µM: read-out: % Inhibition, CYP450, 3A4
T3 construct: purchased BD Gentest Corp., Woburn, Mass
T3 sequence (P08684 whole entry): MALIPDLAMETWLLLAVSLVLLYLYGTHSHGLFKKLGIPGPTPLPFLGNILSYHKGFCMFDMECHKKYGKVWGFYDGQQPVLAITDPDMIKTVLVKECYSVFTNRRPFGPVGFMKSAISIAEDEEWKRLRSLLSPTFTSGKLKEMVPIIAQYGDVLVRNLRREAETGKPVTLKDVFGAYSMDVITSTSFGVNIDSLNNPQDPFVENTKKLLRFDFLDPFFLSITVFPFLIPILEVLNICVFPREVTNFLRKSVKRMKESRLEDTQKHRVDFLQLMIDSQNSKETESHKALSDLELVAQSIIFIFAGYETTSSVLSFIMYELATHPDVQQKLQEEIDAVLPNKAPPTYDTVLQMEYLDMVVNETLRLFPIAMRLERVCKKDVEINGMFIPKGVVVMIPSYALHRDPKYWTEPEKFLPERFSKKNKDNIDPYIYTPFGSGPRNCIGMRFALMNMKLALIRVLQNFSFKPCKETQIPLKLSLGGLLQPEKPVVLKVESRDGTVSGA
Procedure: (§1) Because inhibition of cytochrome P450 (CYP450) enzymes in vitro is predictive of potential drug interactions in vivo, CYP450 inhibition was measured using commercially available Human Cytochrome P450 kits (BD Gentest Corp., Woburn, Mass.) for the major CYP450s: CYP3A4 and CYP2D6. The assays were performed according to the manufacturer's instructions.

CYP2D6 = target: T4, CYP2D6 (Homo sapiens, UniProt P10635); experiment: CYP450 inhibition; type: biochemical; conditions: 10 μM compound, Hit Profile Panel; for inhibition at 10 µM: read-out: % Inhibition, CYP450, 2D6
T4 construct: purchased BD Gentest Corp., Woburn, Mass
T4 sequence (P10635 whole entry): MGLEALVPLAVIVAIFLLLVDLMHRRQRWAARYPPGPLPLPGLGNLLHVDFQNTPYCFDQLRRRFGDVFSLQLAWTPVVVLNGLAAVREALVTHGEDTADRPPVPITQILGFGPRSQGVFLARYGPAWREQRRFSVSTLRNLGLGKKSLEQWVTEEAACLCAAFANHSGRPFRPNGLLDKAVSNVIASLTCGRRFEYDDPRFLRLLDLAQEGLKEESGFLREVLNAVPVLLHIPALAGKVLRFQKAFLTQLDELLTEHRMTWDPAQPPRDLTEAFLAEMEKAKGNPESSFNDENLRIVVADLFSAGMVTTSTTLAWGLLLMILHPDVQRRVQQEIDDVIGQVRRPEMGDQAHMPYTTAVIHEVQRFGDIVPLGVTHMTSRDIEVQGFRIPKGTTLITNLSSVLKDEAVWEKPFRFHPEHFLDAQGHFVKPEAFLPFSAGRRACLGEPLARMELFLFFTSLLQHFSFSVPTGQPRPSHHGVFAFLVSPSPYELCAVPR
Procedure: as §1

Rolipram = type: binding; conditions: rat; 10 μM compound; Hit Profile Panel
Opiate μ(OP3, MOP) = Opiate μ(OP3, MOP) (Homo sapiens, UniProt P35372); type: binding; conditions: 10 μM compound, Hit Profile Panel
Opiate μ(OP3, MOP), sequence (P35372 whole entry): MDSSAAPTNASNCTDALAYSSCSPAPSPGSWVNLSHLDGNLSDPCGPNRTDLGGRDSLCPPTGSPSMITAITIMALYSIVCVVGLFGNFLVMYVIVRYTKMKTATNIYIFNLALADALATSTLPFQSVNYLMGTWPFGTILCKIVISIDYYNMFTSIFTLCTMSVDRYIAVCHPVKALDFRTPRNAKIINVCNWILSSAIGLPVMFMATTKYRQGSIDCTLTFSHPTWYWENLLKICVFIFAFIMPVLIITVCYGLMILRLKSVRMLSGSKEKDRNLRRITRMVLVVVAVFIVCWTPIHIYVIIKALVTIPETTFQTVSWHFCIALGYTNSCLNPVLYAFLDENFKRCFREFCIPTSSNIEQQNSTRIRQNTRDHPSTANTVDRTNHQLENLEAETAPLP

CYP450, 2C19 = CYP450, 2C19 (Homo sapiens, UniProt P33261); conditions: 10 µM
[2] = test system: MRSA strain BAA-1717 (TCH1516; USA300); experiment: Murine efficacy, neutropenic thigh model; type: in vivo, mouse; conditions: 25 mg/kg PO once 2 h after infection; CFU 24 hrs post dosage; compared to untreated controls
Tolerability studies = type: in vivo; conditions: data not shown
N. gonorrhoeae = experiment: MIC (Table 2B); type: cell-based; conditions: Neisseria gonorrhoeae; Table 2B, strain not given; read-out: N. gonorrhoeae MIC
CYP2C19 = CYP2C19 (Homo sapiens, UniProt P33261)
CYP2C19, sequence (P33261 whole entry): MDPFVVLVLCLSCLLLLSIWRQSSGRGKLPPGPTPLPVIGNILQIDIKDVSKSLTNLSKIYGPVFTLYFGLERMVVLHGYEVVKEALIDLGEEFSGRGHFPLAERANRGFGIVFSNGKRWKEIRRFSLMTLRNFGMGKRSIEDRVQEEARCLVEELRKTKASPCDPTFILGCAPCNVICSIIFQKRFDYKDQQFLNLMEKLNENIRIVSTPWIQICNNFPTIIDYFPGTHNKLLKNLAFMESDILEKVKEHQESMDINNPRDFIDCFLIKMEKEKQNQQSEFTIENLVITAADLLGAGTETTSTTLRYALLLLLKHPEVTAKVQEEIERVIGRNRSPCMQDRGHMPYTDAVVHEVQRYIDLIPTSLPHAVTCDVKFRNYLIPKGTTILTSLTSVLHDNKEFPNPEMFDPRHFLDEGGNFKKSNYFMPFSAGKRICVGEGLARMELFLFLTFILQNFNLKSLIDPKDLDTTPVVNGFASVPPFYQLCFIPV

hERG potassium channel = hERG potassium channel (Homo sapiens, UniProt Q12809)
CYP2C9 = CYP2C9 (Homo sapiens, UniProt P11712)
CYP2C9, sequence (P11712 whole entry): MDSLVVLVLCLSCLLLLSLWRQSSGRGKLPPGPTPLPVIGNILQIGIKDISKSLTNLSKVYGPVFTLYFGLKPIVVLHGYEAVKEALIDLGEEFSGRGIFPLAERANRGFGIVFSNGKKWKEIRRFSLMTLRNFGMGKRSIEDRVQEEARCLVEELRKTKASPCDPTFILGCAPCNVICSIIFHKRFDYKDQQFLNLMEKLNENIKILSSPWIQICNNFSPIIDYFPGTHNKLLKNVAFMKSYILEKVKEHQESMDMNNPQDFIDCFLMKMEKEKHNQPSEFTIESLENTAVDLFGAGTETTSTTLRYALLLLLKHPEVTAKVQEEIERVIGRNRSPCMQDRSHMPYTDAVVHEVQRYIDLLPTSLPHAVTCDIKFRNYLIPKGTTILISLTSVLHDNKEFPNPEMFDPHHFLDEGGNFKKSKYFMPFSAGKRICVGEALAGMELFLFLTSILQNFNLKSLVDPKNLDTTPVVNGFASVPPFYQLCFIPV

CYP1A2 = CYP1A2 (Homo sapiens, UniProt P05177)
CYP1A2, sequence (P05177 whole entry): as the sequence (P05177 whole entry) above

36 mammalian receptors = type: binding; conditions: 10 μM; every receptor of the panel

Row | Compound | % Inhibition, Phorbol Ester (Phorbol Ester) [%] | % Inhibition, Imidazoline I2, Central (Imidazoline I2, Central) [%] | % Inhibition, Rolipram (Rolipram) [%] | inhibition at 10 µM (CYP2C19) [%] | inhibition at 10 µM (Adrenergic α1A) [%] | inhibition at 10 µM (Sigma σ1) [%] | inhibition at 10 µM (Adrenergic α1B) [%] | inhibition at 10 µM (Potassium Channel (KATP)) [%] | inhibition at 10 µM (hERG potassium channel) [%] | inhibition at 10 µM (CYP3A4) [%] | inhibition at 10 µM (CYP2D6) [%] | inhibition at 10 µM (CYP2C9) [%] | inhibition at 10 µM (Opiate μ(OP3, MOP)) [%] | inhibition at 10 µM (CYP1A2) [%] | also measured
1 | O=C(Nc1nnc(-c2ccc(F)cc2)o1)N1CCc2ccccc2C1 [MBX-4132] | 4 | 33 | 2 |  |  |  |  |  |  |  |  |  |  |  | % Inhibition, Adrenergic α1A (Adrenergic α1A): 24%; % Inhibition, CYP450, 2C9 (CYP450, 2C9): 10%; % Inhibition, Potassium Channel hERG (Potassium Channel hERG): 64%; % Inhibition, Sigma σ1 (Sigma σ1): −4%; % Inhibition, Adrenergic α1B (Adrenergic α1B): 21%; % Inhibition, Potassium Channel (KATP) (Potassium Channel (KATP)): 10%; % Inhibition, CYP450, 1A2 (CYP450, 1A2): 9%; bioavailability, available from oral dosing [1]: > 75%; % Inhibition, CYP450, 3A4 (CYP3A4): 7%; % Inhibition, CYP450, 2D6 (CYP2D6): 10%; % Inhibition, Opiate μ(OP3, MOP) (Opiate μ(OP3, MOP)): 74%; % Inhibition, CYP450, 2C19 (CYP450, 2C19): 44%; drop in CFU/g [2]: > 2 log; elevated single dose tolerability (Tolerability studies; 100 mg/kg, PO, observed 24 h): no effects distinct from vehicle controls; multidose tolerability (Tolerability studies; seven days of dosing at 25 mg/kg, SC, BID, observed 10 days): no effects distinct from vehicle controls
2 | O=C(Nc1nnc(-c2ccc(F)cc2)o1)c1ccc(OC2CCCCC2)cc1 [compound 4292] | 2 | 10 | −8 | 9 | 9 | 10 | 3 | 8 | 8 | 4 | 2 | 10 | 4 | 5 | MIC (N. gonorrhoeae): 0.09 µg/mL (≈ 0.236 µM)
3 | O=C(Nc1nnc(-c2ccc(F)cc2)o1)N1CC=C(C(F)(F)F)CC1 [compound 4347] | 7 | −5 | −6 | 8 | -21 | -2 | 7 | 2 | 0 | 9 | 9 | 4 | -14 | 2 | inhibition of the 36 mammalian receptors (36 mammalian receptors): < 50%
